Laboratory results published in PubChem BioAssay AID330 (DTP/NCI, 2004).
Several values for one entry are separate records, joined by “and”; a condition that tells them apart may be missing. Equal entries are not always repeated. Toxic doses and inconclusive results are not listed. Rule for the calls: active = survival T/C of 150% or more; inactive = T/C below 125% in these data. Peptide text beside a SMILES is read from it. * marks the point of attachment. Boc = CC(C)(C)OC(=O)*; NHNH2 = NN*

Test system: P388 leukemia ip, CD2F1 mice, survival T/C
Test: NCI In Vivo Anticancer Drug Screen. Data for tumor model P388 Leukemia (intraperitoneal) in CD2F1 (CDF1) mice
Conditions: endpoint: median survival time, higher = longer survival
Method in brief: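 Mice carrying the transplanted tumor received test compound or vehicle. Survival was recorded in each group, and the value is the treated-group measurement divided by that of the vehicle-treated control group.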

[1] = dose: 50.0 mg/kg/injection, schedule: Q01DX009 (ip), vehicle: Klucel (hydroxypropylcellulose) (HPC)
[2] = dose: 50.0 mg/kg/injection, schedule: Q01DX005 (ip), vehicle: Klucel (hydroxypropylcellulose) (HPC)
[3] = dose: 100.0 mg/kg/injection, schedule: Q01DX005 (ip), vehicle: Klucel (hydroxypropylcellulose) (HPC)
[4] = dose: 200.0 mg/kg/injection, schedule: Q01DX005 (ip), vehicle: Klucel (hydroxypropylcellulose) (HPC)
[5] = dose: 60.0 mg/kg/injection, schedule: Q01DX005 (ip), vehicle: saline with Tween-80
[6] = dose: 120.0 mg/kg/injection, schedule: Q01DX005 (ip), vehicle: saline with Tween-80
[7] = dose: 240.0 mg/kg/injection, schedule: Q01DX005 (ip), vehicle: saline with Tween-80
[8] = dose: 60.0 mg/kg/injection, schedule: Q01DX005 (ip), vehicle: Klucel (hydroxypropylcellulose) (HPC)
[9] = dose: 120.0 mg/kg/injection, schedule: Q01DX005 (ip), vehicle: Klucel (hydroxypropylcellulose) (HPC)
[10] = dose: 240.0 mg/kg/injection, schedule: Q01DX005 (ip), vehicle: Klucel (hydroxypropylcellulose) (HPC)
[11] = dose: 100.0 mg/kg/injection, schedule: Q01DX009 (ip), vehicle: Klucel (hydroxypropylcellulose) (HPC)
[12] = dose: 200.0 mg/kg/injection, schedule: Q01DX009 (ip), vehicle: Klucel (hydroxypropylcellulose) (HPC)
[13] = dose: 25.0 mg/kg/injection, schedule: Q01DX009 (ip), vehicle: saline with Tween-80
[14] = dose: 50.0 mg/kg/injection, schedule: Q01DX009 (ip), vehicle: saline with Tween-80
[15] = dose: 100.0 mg/kg/injection, schedule: Q01DX009 (ip), vehicle: saline with Tween-80
[16] = dose: 50.0 mg/kg/injection, schedule: Q01DX005 (ip), vehicle: saline
[17] = dose: 100.0 mg/kg/injection, schedule: Q01DX005 (ip), vehicle: saline
[18] = dose: 100.0 mg/kg/injection, schedule: Q04DX003 (ip), vehicle: saline
[19] = dose: 200.0 mg/kg/injection, schedule: Q04DX003 (ip), vehicle: saline
[20] = dose: 400.0 mg/kg/injection, schedule: Q04DX003 (ip), vehicle: saline
[21] = dose: 50.0 mg/kg/injection, schedule: Q01DX005 (ip), vehicle: saline with Tween-80
[22] = dose: 100.0 mg/kg/injection, schedule: Q01DX005 (ip), vehicle: saline with Tween-80
[23] = dose: 200.0 mg/kg/injection, schedule: Q01DX005 (ip), vehicle: saline with Tween-80

Measured: T/C

COC(=O)c1ccccc1N=C/C(Cl)=C(/Cl)C(=O)O
inactive: dose: 6.25 mg/kg/injection, schedule: Q01DX009 (ip), vehicle: Klucel (hydroxypropylcellulose) (HPC) 100 % of control and 110 % of control and 96 % of control | dose: 12.5 mg/kg/injection, schedule: Q01DX009 (ip), vehicle: Klucel (hydroxypropylcellulose) (HPC) 100 % of control and 111 % of control and 117 % of control | dose: 25.0 mg/kg/injection, schedule: Q01DX009 (ip), vehicle: Klucel (hydroxypropylcellulose) (HPC) 113 % of control and 118 % of control and 121 % of control | [1] 113 % of control and 116 % of control and 119 % of control

CCC1CN2CCO[Si](CC[Si](C)(C)C)(OCC2)O1 (stereo not given)
inactive: [2] 97 % of control | [3] 97 % of control | [4] 101 % of control and 104 % of control

COC(=O)CCP(CCC(=O)OC)c1ccccc1
inactive: [5] 99 % of control | [6] 99 % of control | [7] 103 % of control

Nc1ccccc1Nc1c([N+](=O)[O-])cc(C(F)(F)F)cc1[N+](=O)[O-]
inactive: [8] 103 % of control | [9] 105 % of control | [10] 90 % of control

O=C1c2ccccc2C(=O)N1CCCC[P+](c1ccccc1)(c1ccccc1)c1ccccc1
inactive: dose: 1.5 mg/kg/injection, schedule: Q01DX009 (ip), vehicle: other 112 % of control | dose: 3.0 mg/kg/injection, schedule: Q01DX009 (ip), vehicle: other 116 % of control | dose: 6.0 mg/kg/injection, schedule: Q01DX009 (ip), vehicle: other 116 % of control | dose: 9.0 mg/kg/injection, schedule: Q01DX009 (ip), vehicle: other 121 % of control

COC(=O)C1CC2CC(O)CN(CCc3c1[nH]c1ccccc31)C2 (stereo not given)
inactive: dose: 3.63 mg/kg/injection, schedule: Q01DX005 (ip), vehicle: Klucel (hydroxypropylcellulose) (HPC) 104 % of control | dose: 7.25 mg/kg/injection, schedule: Q01DX005 (ip), vehicle: Klucel (hydroxypropylcellulose) (HPC) 100 % of control | dose: 14.5 mg/kg/injection, schedule: Q01DX005 (ip), vehicle: Klucel (hydroxypropylcellulose) (HPC) 104 % of control | dose: 29.0 mg/kg/injection, schedule: Q01DX005 (ip), vehicle: Klucel (hydroxypropylcellulose) (HPC) 89 % of control

CCN1C(=O)CC(SC2CC(=O)N(CC)C2=O)C1=O (stereo not given)
inactive: [2] 99 % of control | [3] 95 % of control | [4] 99 % of control

COc1ccc(/C=N/NC(N)=O)c(OC)c1OC
inactive: [1] 100 % of control | [11] 103 % of control | [12] 98 % of control

Cc1cccc(C)c1Nc1nnc(-c2ccccc2)s1
inactive: dose: 15.0 mg/kg/injection, schedule: Q01DX005 (ip), vehicle: saline with Tween-80 104 % of control | dose: 30.0 mg/kg/injection, schedule: Q01DX005 (ip), vehicle: saline with Tween-80 103 % of control | [5] 94 % of control

O[C@]12CC=CC[C@]1(O)CC(N1CCCCC1)C2
inactive: dose: 12.5 mg/kg/injection, schedule: Q01DX009 (ip), vehicle: saline with Tween-80 100 % of control | [13] 120 % of control and 93 % of control | [14] 100 % of control and 111 % of control | [15] 93 % of control

c1cc2n[pH]nc2cn1 (stereo not given)
inactive: dose: 15.0 mg/kg/injection, schedule: Q01DX005 (ip), vehicle: saline 120 % of control | dose: 30.0 mg/kg/injection, schedule: Q01DX005 (ip), vehicle: saline 107 % of control

COc1cc(NCC2COc3c(ccc(OC)c3OC)C2=O)c([N+](=O)[O-])cc1OC (stereo not given)
inactive: [8] 90 % of control | [9] 92 % of control | [10] 86 % of control

[O-][n+]1cccc2c3ccccc3ncc21
inactive: dose: 6.25 mg/kg/injection, schedule: Q04DX002 (ip), vehicle: saline with Tween-80 94 % of control | dose: 12.5 mg/kg/injection, schedule: Q04DX002 (ip), vehicle: saline with Tween-80 108 % of control | dose: 25.0 mg/kg/injection, schedule: Q04DX002 (ip), vehicle: saline with Tween-80 100 % of control

CCN(CC)CCCNc1cc(OC)cc2nc3cc(Cl)ccc3nc12
inactive: [16] 100 % of control | [17] 106 % of control

C/C(=N\NC(=S)N1CC2CCC(CC2)C1)c1cccc(C)n1
inactive: dose: 6.25 mg/kg/injection, schedule: Q01DX005 (ip), vehicle: saline with Tween-80 102 % of control and 114 % of control | dose: 12.5 mg/kg/injection, schedule: Q01DX005 (ip), vehicle: saline with Tween-80 112 % of control

CCCCCCC(=O)/C=C/c1cccc(OCc2ccccc2)c1
inactive: [2] 90 % of control | [3] 87 % of control | [4] 94 % of control

Nc1nc(N)n(N)c(=S)n1
inactive: dose: 50.0 mg/kg/injection, schedule: Q04DX003 (ip), vehicle: saline with Tween-80 96 % of control | dose: 100.0 mg/kg/injection, schedule: Q04DX003 (ip), vehicle: saline with Tween-80 106 % of control

CC(C(=O)O)[As](=O)(O)O (stereo not given)
inactive: [18] 102 % of control | [19] 99 % of control | [20] 98 % of control

C/C(=N\NC(=S)Nc1ccc(C(=O)O)cc1)c1nccc2ccccc12
inactive: [21] 100 % of control | [22] 90 % of control | [23] 90 % of control

O/N=C\c1ccccc1P(c1ccccc1)c1ccccc1/C=N\O
inactive: [21] 93 % of control | [22] 92 % of control | [23] 90 % of control

Cc1cc(CC(C)O)n[nH]1 (stereo not given)
inactive: [1] 109 % of control | [11] 106 % of control | [12] 102 % of control

Oc1ccccc1-c1cc(-c2ccccc2)nc(NCCCCNc2nc(-c3ccccc3)cc(-c3ccccc3O)n2)n1
inactive: dose: 12.5 mg/kg/injection, schedule: Q01DX005 (ip), vehicle: Klucel (hydroxypropylcellulose) (HPC) 97 % of control | dose: 25.0 mg/kg/injection, schedule: Q01DX005 (ip), vehicle: Klucel (hydroxypropylcellulose) (HPC) 97 % of control | [2] 94 % of control | [3] 88 % of control

COc1c(O)c(OC)c2oc3ccccc3c(=O)c2c1OC
inactive: dose: 2.5 mg/kg/injection, schedule: Q01DX009 (ip), vehicle: saline + alcohol 100 % of control | dose: 5.0 mg/kg/injection, schedule: Q01DX009 (ip), vehicle: saline + alcohol 101 % of control | dose: 10.0 mg/kg/injection, schedule: Q01DX009 (ip), vehicle: saline + alcohol 100 % of control

O=c1c2cc3c(=O)n(CO)c(=O)c3cc2c(=O)n1CO
inactive: [5] 118 % of control | [6] 120 % of control | [7] 121 % of control

Cc1c(O)c(=O)ccn1CCCl
inactive: [16] 104 % of control and 107 % of control | [17] 106 % of control and 107 % of control | dose: 200.0 mg/kg/injection, schedule: Q01DX005 (ip), vehicle: saline 109 % of control and 116 % of control

O=C(NCCO)Nc1ccccc1F
inactive: [18] 100 % of control | [19] 95 % of control | [20] 104 % of control

O=C(O)c1c2c(nc3ccccc13)-c1ccccc1C2
inactive: [2] 102 % of control | [3] 93 % of control | [4] 89 % of control

O=C(CCN1CCCC1)Nc1nc(-c2ccc(Cl)cc2)cs1
inactive: [21] 102 % of control | [22] 93 % of control | [23] 94 % of control

CC(NC(=O)C(Cc1ccccc1)NC(=O)c1ccc[n+](Cc2ccccc2)c1)C(N)=O (stereo not given)
inactive: dose: 60.0 mg/kg/injection, schedule: Q01DX005 (ip), vehicle: saline 97 % of control | dose: 120.0 mg/kg/injection, schedule: Q01DX005 (ip), vehicle: saline 93 % of control

CC(C)(C)OC(=O)NC(Cc1ccccc1)C(=O)NC(CO)C(=O)NN (stereo not drawn) (Boc-Phe-Ser-NHNH2; configuration not given here)
inactive: [2] 97 % of control | [3] 95 % of control | [4] 105 % of control

ClC1CCCCC1C(C1CCCCC1)C1CCCCC1 (stereo not given)
inactive: [21] 98 % of control | [22] 100 % of control

NC1=C(Cl)C(=O)C(N)=C(Cl)C1=O
inactive: [13] 113 % of control | [1] 100 % of control | [14] 100 % of control | [11] 103 % of control | [15] 100 % of control | [12] 105 % of control | dose: 200.0 mg/kg/injection, schedule: Q01DX009 (ip), vehicle: saline with Tween-80 94 % of control | dose: 400.0 mg/kg/injection, schedule: Q01DX009 (ip), vehicle: Klucel (hydroxypropylcellulose) (HPC) 99 % of control
